What was measured:
[1] = system: snake venom phosphodiesterase (SVPD)
Nuclease P1 (NP1) = biological target: T1, Nuclease P1 (NP1) (Penicillium citrinum, UniProt P24289); assay: Resistance to Nuclease P1, read out in THP1-Blue ISG cells; settings: 2.5 mU NP1, 2 hr at 37° C., then 50 μM on THP1-Blue ISG cells, FIG. 12
T1 sequence (P24289 1-270): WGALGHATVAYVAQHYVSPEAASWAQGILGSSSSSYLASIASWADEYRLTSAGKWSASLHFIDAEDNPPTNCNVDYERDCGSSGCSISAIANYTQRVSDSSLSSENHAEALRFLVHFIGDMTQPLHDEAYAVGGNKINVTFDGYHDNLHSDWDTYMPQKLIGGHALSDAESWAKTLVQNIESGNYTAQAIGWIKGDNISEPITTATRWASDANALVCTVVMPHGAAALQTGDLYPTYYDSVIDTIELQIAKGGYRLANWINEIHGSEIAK

hSTING (Q) = assay: IFNβ-LUC reporter in HEK293T cells expressing hSTING (Q); assay type: cell-based, human; settings: 10 μM, digitonin permeabilization, 6 hrs, FIG. 14
Description: To determine the responsiveness of the five known natural human STING variants (referred to as WT, REF, HAQ, AQ and Q) to the native and derivative molecules, a panel of human embryonic kidney (HEK) 293T cell lines that expressed the human STING alleles was generated. […] MSCV2.2 plasmids encoding hSTING(REF)-GFP, hSTING(WT)-GFP, hSTING(HAQ)-GFP, hSTING(Q)-GFP and mSTING(WT)-GFP were obtained from the Vance Laboratory at UC Berkeley. hSTING(AQ)-GFP was derived from hSTING(Q)-GFP using a QuickChange Site-Directed Mutagenesis kit (Stratagene). The sequence of the hSTING(REF) allele is also known as the Barber allele (Ishikawa, H., and Barber, G. N. (2008). Nature 455, 674-678), and has the NCBI Reference Sequence NP_938023.1. The amino acid difference between hSTING(REF) and the other WT, HAQ, AQ and Q human STING alleles are shown in FIG. 13, which is adapted from Yi et al., Plos One 8: e77846 (2013). Stable HEK 293T-derived cell lines expressing each of the individual human STING alleles were generated by FACS sorting of GFP positive cells using a Mo Flo cell sorter at the Cancer Research Laboratory Flow Cytometry Facility at UC Berkeley. 1×10^4 HEK293T STING cells were seeded in 96-well plates and transiently transfected (using Lipofectamine 2000) with 50 ng of a human IFN-β reporter plasmid (pLuc-IFN-β) expressing the human IFN-β promoter upstream of a luciferase reporter and 10 ng of TK-renilla for normalization. 24 hours later, cells were stimulated with native and synthetic CDN derivative molecules using digitonin permeabalization to ensure uniform uptake. Each STING cell line was stimulated with 10 μM of cyclic [G(3′,5′)pA(3′,5′)p] (cGAMP), cyclic [G(2′,5′)pA(3′,5′)p] (ML-cGAMP), Rp, Rp dithio cyclic [G(2′,5′)pA(3′,5′)p] […] (CDA), Rp, Rp dithio cyclic [A(3′,5′)pA(3′,5′)p] (RR-CDA), cyclic [A(2′,5′)pA(3′,5′)p] (ML-CDA), Rp, Rp dithio cyclic [A(2′,5′)pA(3′,5′)p] (ML RR-CDA), cyclic [G(3′,5′)pG(3′,5′)p] (CDG), Rp, Rp dithio cyclic [G(3′,5′)pG(3′,5′)p] (RR-CDG), cyclic [G(2′,5′)pG(3′,5′)p] (ML-CDG) or Rp, Rp dithio cyclic [G(2′,5′)pG(3′,5′)p] (ML RR-CDG) in 25 ul digitonin buffer (50 mM HEPES, 100 mM KCL, 3 mM MgCl2, 0.1 mM DTT, 85 mM Sucrose, 0.2% BSA, 1 mM ATP, 0.1 mM GTP, 10 ug/ml digitonin). After 20 min, the stimulation mixtures were removed and 200 ul of standard RPMI media was added. After stimulation for 6 hrs, cell lysates were prepared and reporter gene activity measured using the Dual Luciferase Assay System (Promega) on a Spectramax M3 luminometer.

THP1-Blue™ ISG cells = assay: Type I interferon induction in THP1-Blue ISG reporter cells (QUANTI-Blue, A655); assay type: cell-based, human; settings: 50 μM, mock treated, 16 hr incubation, FIG. 12
Experimental: To determine the relative level of type I interferon induced in human cells by each of the native and derivative molecules as a signature of adjuvant potency, 4×10^5 THP1-Blue™ ISG cells (a human monocyte cell line transfected with an IRF-inducible secreted embryonic alkaline phosphatase reporter gene (Invivogen) which express alkaline phosphatase under the control of a promoter comprised of five IFN-stimulated response elements) were incubated with 100 μM of cyclic [G(3′,5′)pG(3′,5′)p] (CDG), cyclic [G(2′,5′)pG(3′,5′)p] (mixed linkage, or ML-CDG), or HBSS for 30 minutes at 37° C. with 5% CO2. After 30 minutes, cells were washed and plated in 96-well dish in RPMI media containing 10% FBS, and incubated at 37° C. with 5% CO2. Cell culture supernatants from each sample were collected after overnight incubation, and 20 μL of the cell culture supernatants was added to 180 μL QUANTI-Blue reagent (Invivogen) and incubated for 45 minutes to evaluate type I interferon protein levels. Readings at Absorbance 655 nm were taken every 3 minutes using a Versa Max kinetic spectrophotometer (Molecular Diagnostics).
[…]. After 30 minutes, cells were washed and plated in 96-well dish in RPMI media containing 10% FBS, and incubated at 37° C. with 5% CO2. Cell culture supernatants from each sample were collected after overnight incubation, and 20 μL of the cell culture supernatants was added to 180 μL QUANTI-Blue reagent (Invivogen) and incubated for 45 minutes. Readings at Absorbance 655 nm were taken at 15 minutes using a SpectraMax spectrophotometer (Molecular Diagnostics).
The induction of type I interferon in human cells was measured to evaluate the potency of untreated and phosphodiesterase-treated oxo, Rp monothio and Rp, Rp dithio derivatives. […]. After 30 minutes, cells were washed and plated in a 96-well dish in RPMI media containing 10% FBS, and incubated at 37° C. with 5% CO2. Cell culture supernatants from each sample were collected after 16 hr incubation, and 20 μL of the cell culture supernatants was added to 180 μL QUANTI-Blue reagent (Invivogen) and incubated for 25 minutes to evaluate type I interferon protein levels. Readings at Absorbance 655 nm were measured with a Versa Max spectrophotometer (Molecular Diagnostics).

hSTING (REF) = biological target: T2, hSTING (REF) (Homo sapiens, UniProt Q86WV6); assay: IFNβ-LUC reporter in HEK293T cells expressing hSTING (REF); assay type: cell-based; settings: 10 μM, digitonin permeabilization, 6 hrs, FIG. 14
T2 construct: GFP; expressed in transfected cells; plasmid from the Vance Laboratory, UC Berkeley
Experimental: MSCV2.2 plasmids encoding hSTING(REF)-GFP, hSTING(WT)-GFP, hSTING(HAQ)-GFP, hSTING(Q)-GFP and mSTING(WT)-GFP were obtained from the Vance Laboratory at UC Berkeley. hSTING(AQ)-GFP was derived from hSTING(Q)-GFP using a QuickChange Site-Directed Mutagenesis kit (Stratagene). […] 1×10^4 HEK293T STING cells were seeded in 96-well plates and transiently transfected (using Lipofectamine 2000) with 50 ng of a human IFN-β reporter plasmid (pLuc-IFN-β) expressing the human IFN-β promoter upstream of a luciferase reporter and 10 ng of TK-renilla for normalization. 24 hours later, cells were stimulated with native and synthetic CDN derivative molecules using digitonin permeabalization to ensure uniform uptake. Each STING cell line was stimulated with 10 μM of cyclic [G(3′,5′)pA(3′,5′)p] (cGAMP), cyclic [G(2′,5′)pA(3′,5′)p] […] (RR-CDA), cyclic [A(2′,5′)pA(3′,5′)p] […] (RR-CDG), cyclic [G(2′,5′)pG(3′,5′)p] […] (ML RR-CDG) in 25 ul digitonin buffer (50 mM HEPES, 100 mM KCL, 3 mM MgCl2, 0.1 mM DTT, 85 mM Sucrose, 0.2% BSA, 1 mM ATP, 0.1 mM GTP, 10 ug/ml digitonin). After 20 min, the stimulation mixtures were removed and 200 ul of standard RPMI media was added. After stimulation for 6 hrs, cell lysates were prepared and reporter gene activity measured using the Dual Luciferase Assay System (Promega) on a Spectramax M3 luminometer.

T2 sequence (Q86WV6 whole entry): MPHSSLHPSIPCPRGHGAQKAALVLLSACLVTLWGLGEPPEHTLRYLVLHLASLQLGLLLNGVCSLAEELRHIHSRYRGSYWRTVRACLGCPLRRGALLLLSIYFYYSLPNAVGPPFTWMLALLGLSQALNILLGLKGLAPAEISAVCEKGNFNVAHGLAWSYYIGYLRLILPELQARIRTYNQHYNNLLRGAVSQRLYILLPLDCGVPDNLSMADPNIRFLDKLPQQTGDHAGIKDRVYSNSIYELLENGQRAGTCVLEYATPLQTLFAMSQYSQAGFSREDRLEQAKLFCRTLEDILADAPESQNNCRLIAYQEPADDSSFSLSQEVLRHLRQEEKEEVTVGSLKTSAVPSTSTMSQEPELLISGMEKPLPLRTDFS

Compound	type I interferon inducing activity after SVPD treatment [1]	type I interferon inducing activity after NP1 treatment (Nuclease P1 (NP1))	IFNβ reporter response of hSTING (Q) (hSTING (Q))	induction of type I interferon, untreated compounds (THP1-Blue™ ISG cells)	IFNβ reporter response of hSTING (REF) (hSTING (REF))
Nc1ncnc2c1ncn2C1OC2COP(=O)(O)OC3C(O)C(COP(=O)(O)OC2C1O)OC3n1cnc2c(N)ncnc21 (stereo not drawn) [ML-CDA, cyclic-[A(2′,5′)pA(3′,5′)p]]	lost activity	lost activity	–	–	–
Nc1nc2c(ncn2[C@@H]2O[C@@H]3COP(=O)(O)O[C@H]4[C@@H](O)[C@H](n5cnc6c(N)ncnc65)O[C@@H]4COP(=O)(O)O[C@H]3[C@H]2O)c(=O)[nH]1 [cGAMP, cyclic [G(3′,5′)pA(3′,5′)p], reference compound]	–	–	responded poorly	–	–
Nc1ncnc2c1ncn2[C@@H]1O[C@@H]2CO[P@@](O)(=S)O[C@H]3[C@@H](O)[C@H](n4cnc5c(N)ncnc54)O[C@@H]3CO[P@@](O)(=S)O[C@H]2[C@H]1O [RR-CDA, Rp, Rp dithio cyclic [A(3′,5′)pA(3′,5′)p], reference compound]	retain their potency	retain their potency	–	more potent inducers of type I interferon than the oxo	–
cyclic [CDG, cyclic [G(3′,5′)pG(3′,5′)p], reference compound]	–	–	responded poorly	–	responded poorly
Nc1nc2c(ncn2[C@@H]2O[C@@H]3COP(=O)(S)O[C@H]4[C@@H](O)[C@H](n5cnc6c(N)ncnc65)O[C@@H]4CO[P@@](=O)(S)O[C@@H]2[C@@H]3O)c(=O)[nH]1 (stereo partly drawn) [ML RR-cGAMP, dithio-[RP,RP]-cyclic-[G(2′,5′)pA(3′,5′)p]]	–	–	responsive to stimulation	–	–
Nc1ncnc2c1ncn2C1OC2COP(=O)(O)OC3C(O)C(COP(=O)(S)OC2C1O)OC3n1cnc2c(N)ncnc21 (stereo not drawn) [ML R-CDA, monothio-cyclic-[A(2′,5′)pA(3′,5′)Rp]]	susceptible to SVPD treatment	retained activity after NP1 digestion	–	–	–
Nc1ncnc2c1ncn2[C@@H]1O[C@@H]2COP(=O)(O)O[C@H]3[C@@H](O)[C@H](n4cnc5c(N)ncnc54)O[C@@H]3COP(=O)(O)O[C@H]2[C@H]1O [CDA, cyclic[A(3′,5′)pA(3′,5′)p], reference compound]	lost activity	lost activity	responded poorly	–	responded poorly
